Results: article PMC11382572, “Structural and kinetic insights into the stereospecific oxidation of R-2,3-dihydroxypropanesulfonate by DHPS-3-dehydrogenase from Cupriavidus pinatubonensis” (Chemical Science, 2024)

Biological target: T1, DHPS-3-dehydrogenase (CpHpsN) (Cupriavidus pinatubonensis, UniProt Q46N53)
T1 construct: gene hpsN
Assay: X-ray crystal structure, […] Å, co-crystallization; enzyme inhibition assay
Type: biochemical

T1 sequence (Q46N53 whole entry): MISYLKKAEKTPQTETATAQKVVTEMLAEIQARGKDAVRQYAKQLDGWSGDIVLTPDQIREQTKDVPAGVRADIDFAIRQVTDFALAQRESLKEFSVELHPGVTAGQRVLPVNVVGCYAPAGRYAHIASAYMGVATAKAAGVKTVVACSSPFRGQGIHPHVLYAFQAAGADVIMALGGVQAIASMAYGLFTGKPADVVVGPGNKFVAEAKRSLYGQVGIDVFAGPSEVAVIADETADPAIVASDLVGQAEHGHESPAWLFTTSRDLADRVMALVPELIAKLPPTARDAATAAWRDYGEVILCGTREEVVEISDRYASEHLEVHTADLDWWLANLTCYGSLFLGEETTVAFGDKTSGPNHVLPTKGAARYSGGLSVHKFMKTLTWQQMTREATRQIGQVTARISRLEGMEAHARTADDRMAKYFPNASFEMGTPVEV

IC50: 2400 µM
Structure (SMILES): N[C@@H](CS(=O)(=O)O)C(=O)O [L-cysteate]
